US9155714B2, “Compositions comprising an aromatic alcohol and a TRPV-1 antagonist, and uses thereof” (JOHNSON & JOHNSON CONSUMER INC., priority 2013, dated 2015)
Where “and” joins values, the source holds several entries; their conditions need not be identical. Equal values may be shown once. Values belong to the compound of their own block, whether it stands above or below them.

Experiments:
Assay type in all cases: cell-based
[1] = molecular target: T1, human vanilloid receptor-1 (TRPV-1) (Homo sapiens, UniProt Q8NER1); assay: Calcium Flux Test, inhibition of phenoxyethanol-induced calcium flux
T1 construct: host or cells: HEK293
T1 sequence (Q8NER1 whole entry): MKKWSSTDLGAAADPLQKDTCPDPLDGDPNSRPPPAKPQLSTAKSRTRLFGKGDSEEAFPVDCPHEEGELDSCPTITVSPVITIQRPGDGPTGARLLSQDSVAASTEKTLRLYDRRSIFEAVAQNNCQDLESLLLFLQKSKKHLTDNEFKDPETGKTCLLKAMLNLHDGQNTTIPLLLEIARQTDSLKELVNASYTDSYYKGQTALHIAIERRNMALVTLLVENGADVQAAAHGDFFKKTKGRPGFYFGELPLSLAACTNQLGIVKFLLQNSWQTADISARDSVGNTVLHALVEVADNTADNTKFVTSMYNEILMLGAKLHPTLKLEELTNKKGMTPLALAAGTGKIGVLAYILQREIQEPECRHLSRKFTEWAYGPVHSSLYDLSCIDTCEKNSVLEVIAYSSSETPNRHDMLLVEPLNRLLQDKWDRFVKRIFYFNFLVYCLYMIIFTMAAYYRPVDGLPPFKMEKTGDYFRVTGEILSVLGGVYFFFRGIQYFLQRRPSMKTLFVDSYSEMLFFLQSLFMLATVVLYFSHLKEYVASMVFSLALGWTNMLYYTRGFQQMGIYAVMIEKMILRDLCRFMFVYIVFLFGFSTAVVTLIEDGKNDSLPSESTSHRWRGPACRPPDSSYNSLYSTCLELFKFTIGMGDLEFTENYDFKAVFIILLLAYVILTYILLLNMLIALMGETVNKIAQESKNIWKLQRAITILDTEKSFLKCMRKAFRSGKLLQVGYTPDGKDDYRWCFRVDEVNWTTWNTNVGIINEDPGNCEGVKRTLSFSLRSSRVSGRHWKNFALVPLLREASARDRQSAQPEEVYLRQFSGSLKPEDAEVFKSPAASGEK
Description: (§1) The Calcium Flux Test is performed in the following manner: Recombinant HEK293 cells expressing human vanilloid receptor-1 (TRPV-1; accession number AF196175, EMD Millipore, Billerica, Mass.) are grown in D-MEM/F-12 media (Life Technologies, Grand Island, N.Y.) supplemented with 10% fetal bovine serum, 1% non essential amino acids and 400 μg/mL Geneticin (Gibco, Life Technologies). Cells are plated at a concentration of 15,000 cells per well on poly-D-lysine-coated 384 well plates and incubated overnight at 5% CO2 and 37° C. After incubation, culture media is removed from the wells and replaced with 50 μL per well of Fluo-8 No Wash dye solution (#36315, AAT Bioquest, Sunnyvale, Calif.). The Fluo-8 dye solution is prepared by mixing 20 uL of Fluo-8 NW with 30 mL of 0.33× Pluronic® F127 Plus (BASF of Ludwigshafen, Germany) in assay buffer (1×HBSS+2% of HEPES). Fluo-8 dye is incubated for 30 minutes at room temperature. Intracellular calcium (Ca^2+) flux is monitored upon exposure to aromatic alcohol in DMSO vehicle by measuring fluorescence intensity at Ex/Em 490/525 on a Functional Drug Screening System (FDSS; Hamamatsu, […]). Measurements are taken every second for a period of 4 minutes. […] Statistical differences are obtained using One Way ANOVA with Tukey Post-hoc test; statistical significance is defined as P≦0.05.
(§2) The Maximum RFU obtained with a given concentration of aromatic alcohol is compared with the Maximum RFU obtained using the same concentration of aromatic alcohol but pretreated with the TRPV-1 antagonist for 5 minutes after dye incubation. Percent inhibition achieved with the TRPV-1 antagonist is calculated as: 100*((Maximum RFU of aromatic alcohol−Maximum RFU of aromatic alcohol pretreated with TRPV-1 antagonist)/Maximum RFU of aromatic alcohol).
(§3) Capsazepine and AMG9810 were tested for activity as TRPV-1 antagonists using the Calcium Flux Test using two different concentrations of phenoxyethanol in DMSO. They were also tested using the Calcium Flux Test in which phenoxyethanol was replaced with capsaicin. […]

[2] = molecular target: T1, human vanilloid receptor-1 (TRPV-1); assay: Calcium Flux Test, phenoxyethanol replaced with capsaicin (capsaicin-induced calcium flux)
Description: as §1, §2, §3

[3] = molecular target: T1, human vanilloid receptor-1 (TRPV-1); assay: Calcium Flux Test, activity as TRPV-1 agonist
Description: as §1
(§4) Phenoxyethanol was tested at a series of concentrations in DMSO for activity as a TRPV-1 agonist according to the Calcium Flux Test described above. Capsaicin was used as a positive control.
(§5) Maximum RFU values for treatment with phenoxyethanol or capsaisin were compared to the Maximum RFU for a DMSO vehicle alone. Concentrations of phenoxyethanol and capsaicin are reported in milimolar (mM) and nanomolar (nM), respectively.
(§6) Benzyl alcohol and sodium bicarbonate were tested using the Calcium Flux Test.
(§7) Benzyl alcohol and phenethyl alcohol were tested at a series of concentrations in DMSO for activity as a TRPV-1 agonist as described in Example 1. Concentrations of benzyl alcohol and phenethyl alcohol are reported in units of % w/v.

[4] = molecular target: T1, human vanilloid receptor-1 (TRPV-1); assay: Calcium Flux Test, activity as TRPV-1 agonist; set-up: key: **: Statistically significant; n/s: Not statistically significant
Description: as §1, §4, §5, §6, §7

[5] = AMG9810 0.6104 nM, phenoxyethanol 2 mM
[6] = AMG9810 2 nM, phenoxyethanol 2 mM
[7] = AMG9810 10 nM, phenoxyethanol 2 mM
[8] = AMG9810 39 nM, phenoxyethanol 2 mM
[9] = AMG9810 39 nM, phenoxyethanol 3 mM
[10] = AMG9810 156 nM, phenoxyethanol 2 mM
[11] = AMG9810 156 nM, phenoxyethanol 3 mM
[12] = AMG9810 625 nM, phenoxyethanol 2 mM
[13] = AMG9810 625 nM, phenoxyethanol 3 mM
[14] = AMG9810 2500 nM, phenoxyethanol 2 mM
[15] = AMG9810 2500 nM, phenoxyethanol 3 mM
[16] = AMG9810 10000 nM, phenoxyethanol 2 mM
[17] = AMG9810 10000 nM, phenoxyethanol 3 mM
[18] = AMG9810 625 nM, capsaicin 100 nM
[19] = AMG9810 625 nM, capsaicin 300 nM
[20] = AMG9810 2500 nM, capsaicin 100 nM
[21] = AMG9810 2500 nM, capsaicin 300 nM
[22] = AMG9810 10000 nM, capsaicin 100 nM
[23] = AMG9810 10000 nM, capsaicin 300 nM

Maximum RFU (mean ± SD) ([1]; AMG9810 0.1526 nM, phenoxyethanol 2 mM): 261.54 ± 114.76 RFU
Maximum RFU (mean ± SD) ([1]; AMG9810 0.1526 nM, phenoxyethanol 3 mM): 412.30 ± 110.68 RFU
Maximum RFU (mean ± SD) [1, 5]: 189.72 ± 34.94 RFU
inhibition at 0.0006104 µM [1, 5]: 12.3%
Maximum RFU (mean ± SD) ([1]; AMG9810 0.6104 nM, phenoxyethanol 3 mM): 405.29 ± 152.93 RFU
Maximum RFU (mean ± SD) [1, 6]: 202.96 ± 18.01 RFU
inhibition at 0.002 µM [1, 6]: 6.2%
Maximum RFU (mean ± SD) ([1]; AMG9810 2 nM, phenoxyethanol 3 mM): 265.02 ± 52.11 RFU
Maximum RFU (mean ± SD) [1, 7]: 110.26 ± 27.80 RFU
inhibition at 0.01 µM [1, 7]: 49%
Maximum RFU (mean ± SD) ([1]; AMG9810 10 nM, phenoxyethanol 3 mM): 315.60 ± 125.77 RFU
Maximum RFU (mean ± SD) [1, 8]: 165.37 ± 162.35 RFU
inhibition at 0.039 µM [1, 8]: 23.6%
Maximum RFU (mean ± SD) [1, 9]: 98.74 ± 23.34 RFU
inhibition at 0.039 µM [1, 9]: 56%
Maximum RFU (mean ± SD) [1, 10]: 58.21 ± 5.97 RFU
inhibition at 0.156 µM [1, 10]: 73.1%
Maximum RFU (mean ± SD) [1, 11]: 75.59 ± 10.97 RFU
inhibition at 0.156 µM [1, 11]: 66.3%
Maximum RFU (mean ± SD) [1, 12]: 55.53 ± 8.48 RFU
inhibition at 0.625 µM [1, 12]: 74.3%
Maximum RFU (mean ± SD) [1, 13]: 58.16 ± 1.97 RFU
inhibition at 0.625 µM [1, 13]: 74.1%
Maximum RFU (mean ± SD) [1, 14]: 58.00 ± 5.34 RFU
inhibition at 2.5 µM [1, 14]: 73.2%
Maximum RFU (mean ± SD) [1, 15]: 68.59 ± 4.15 RFU
inhibition at 2.5 µM [1, 15]: 69.4%
Maximum RFU (mean ± SD) [1, 16]: 59.78 ± 3.84 RFU
inhibition at 10 µM [1, 16]: 72.4%
Maximum RFU (mean ± SD) [1, 17]: 65.74 ± 4.33 RFU
inhibition at 10 µM [1, 17]: 70.7%
Maximum RFU (mean ± SD) ([2]; AMG9810 39 nM, capsaicin 100 nM): 942.69 ± 88.43 RFU
Maximum RFU (mean ± SD) ([2]; AMG9810 39 nM, capsaicin 300 nM): 975.35 ± 32.01 RFU
Maximum RFU (mean ± SD) ([2]; AMG9810 156 nM, capsaicin 100 nM): 916.79 ± 31.53 RFU
Maximum RFU (mean ± SD) ([2]; AMG9810 156 nM, capsaicin 300 nM): 958.56 ± 16.66 RFU
Maximum RFU (mean ± SD) [2, 18]: 735.36 ± 114.75 RFU
inhibition at 0.625 µM [2, 18]: 13.4%
Maximum RFU (mean ± SD) [2, 19]: 747.36 ± 77.35 RFU
inhibition at 0.625 µM [2, 19]: 14.6%
Maximum RFU (mean ± SD) [2, 20]: 85.41 ± 20.60 RFU
inhibition at 2.5 µM [2, 20]: 90%
Maximum RFU (mean ± SD) [2, 21]: 78.33 ± 46.56 RFU
inhibition at 2.5 µM [2, 21]: 91%
Maximum RFU (mean ± SD) [2, 22]: 47.00 ± 11.29 RFU
inhibition at 10 µM [2, 22]: 94.5%
Maximum RFU (mean ± SD) [2, 23]: 44.15 ± 2.20 RFU
inhibition at 10 µM [2, 23]: 95%
SMILES: CC(C)(C)c1ccc(/C=C/C(=O)Nc2ccc3c(c2)OCCO3)cc1 [AMG9810, (E)-3-(4-t-butylphenyl)-N-(2,3-dihydrobenzo[b][1,4]dioxin-6-yl)acrylamide]

intracellular calcium flux in TRPV-1-transfected HEK cells (result in words) [3]: dose dependent increases
Maximum RFU (mean ± SD) ([3]; benzyl alcohol 0.25 mM (Example 7)): 64.45 ± 28.15 RFU
Maximum RFU (mean ± SD) ([3]; benzyl alcohol 0.5 mM (Example 7)): 104.45 ± 12.50 RFU
Maximum RFU (mean ± SD) ([3]; benzyl alcohol 1 mM (Example 7)): 113.51 ± 4.70 RFU
Maximum RFU (mean ± SD) ([3]; benzyl alcohol 2 mM (Example 7)): 135.45 ± 12.15 RFU
Maximum RFU (mean ± SD) ([3]; benzyl alcohol 4 mM (Example 7)): 362.51 ± 126.09 RFU
P < 0.05 Compared to Vehicle ([4]; benzyl alcohol 0.25 mM): n/s
P < 0.05 Compared to Vehicle ([4]; benzyl alcohol 0.5 mM): n/s
P < 0.05 Compared to Vehicle ([4]; benzyl alcohol 1 mM): n/s
P < 0.05 Compared to Vehicle ([4]; benzyl alcohol 2 mM): n/s
P < 0.05 Compared to Vehicle ([4]; benzyl alcohol 4 mM): **
SMILES: OCc1ccccc1 [Benzyl Alcohol, benzyl alcohol]
Maximum RFU ([3]; benzyl alcohol 0.000161 % w/v alone (no antagonist)): 10.95 ± 0.23 RFU and 8.44 RFU and 16.17 ± 1.16 RFU
Maximum RFU ([3]; benzyl alcohol 0.004357 % w/v alone (no antagonist)): 43.91 ± 3.74 RFU and 31.54 RFU and 55.75 ± 2.68 RFU
Maximum RFU ([3]; benzyl alcohol 0.013072 % w/v alone (no antagonist)): 160.8 ± 12.61 RFU and 93.35 RFU and 124.54 ± 13.18 RFU
Maximum RFU ([3]; benzyl alcohol 0.04 % w/v alone (no antagonist)): 608.23 ± 10.21 RFU and 410.41 RFU and 424.01 ± 2.92 RFU
Maximum RFU ([3]; benzyl alcohol 6.64E−07 % w/v alone (no antagonist)): 9.37 ± 1.66 RFU and 7.66 RFU and 13.85 ± 1.83 RFU
activity for TRPV-1 activation (result in words) ([3]; doses of 2 mM and below, Example 7): did not show statistically significant activity

Maximum RFU (mean ± SD) ([1]; compound 25 μM, phenoxyethanol 2 mM): 158.25 ± 0.69 RFU
Maximum RFU (mean ± SD) ([1]; compound 25 μM, phenoxyethanol 3 mM): 312.62 ± 67.77 RFU
Maximum RFU (mean ± SD) ([1]; compound 100 μM, phenoxyethanol 2 mM): 141.61 ± 33.91 RFU
Maximum RFU (mean ± SD) ([1]; compound 100 μM, phenoxyethanol 3 mM): 195.47 ± 53.34 RFU
Maximum RFU (mean ± SD) ([2]; compound 100 μM, capsaicin 300 nM): 825.37 ± 9.95 RFU
SMILES: CN(C)CCOC(c1ccccc1)c1ccccc1 [Diphenhydramine, diphenhydramine]
reducing phenoxyethanol-induced calcium flux (result in words) ([1]; TRPV-1-expressing HEK293 cells): none of hydrocortisone, diphenhydramine or lidocaine were effective
